Reference: US20250333486A1, “Anti-HSP90 alpha antibody and uses thereof” (NATIONAL HEALTH RESEARCH INSTITUTES, priority 2021, published 2025)

How the values were obtained:
PANC-1 cells [1] = experiment: Transwell invasion assay, rHSP90α-induced PANC-1 invasion; format: cell-based, human; conditions: 15 μg/ml rHSP90α plus 15 μg/ml peptide
Experimental: In a 37° C. and 5% CO2 humidified incubator, cancer cells were subjected to serum starvation in 0.5% FBS-containing medium for 16 h, and then added […] After another 24 h, the treated cells were harvested as aliquots (1×10^5 cells per aliquot) in 0.5% FBS-containing culture medium, and then each aliquot was seeded into a top chamber of Transwell inserts pre-coated with 5-fold diluted Matrigel (BD Biosciences). Cells were allowed 16 h to invade through the Matrigel toward the bottom chambers containing culture medium plus 10% FBS. The filters of the Transwell inserts were then fixed and stained with Giemsa. Invasive cells on the lower side of filters were photographed using the Axiovert S100/AxioCam HR microscope system (Carl Zeiss, Oberkochen, Germany) and further quantified by the Image-Pro Plus software (Media Cybernetics, Inc., Silver Spring, MD, USA).

PANC-1 cells [2] = experiment: Cell spheroid-forming assay, rHSP90α-induced PANC-1 spheroids; format: cell-based, human; conditions: 15 μg/ml rHSP90α plus 15 μg/ml peptide
Experimental: One thousand cancer cells were seeded onto each well of 24-well plates pre-coated with a 4-mm thick layer of 0.5% agarose. After incubation 24 h with serum-free medium at 37° C. plus a 5% CO2 humidified atmosphere, cells were added with PBS or 15 μg/ml of rHSP90α in the absence or presence of 10 μg/ml of control IgG or the tested anti-HSP90α antibody. The incubation was kept for 10-14 days with supplements of some fresh serum-free medium every 3 days. Finally, the cell spheroids characterized by tight, non-adherent, and >100 μm in diameter were photographed and counted under an Olympus IX 71 inverted microscope (Center Valley, PA, USA). The spheroid formation % was calculated by the formula: (number of cell spheroids/1000)×100%.

[3] = system: ARPE-19 retinal pigmented epithelial cells; experiment: Retinal cell toxicity assay (MTS); format: cell-based, human; conditions: 72-h treatment, MTS; read-out: IC50 of cytotoxicity to ARPE-19 cells
Experimental: ARPE-19 cells were seeded onto 96-well plates at a density of 4000 cells per well, and then treated in triplicate with various concentrations of 17-AAG or anti-HSP90α antibody HH01 for 72 h. The 3-(4,5-dimethylthiazol-2-yl)-5-(3-carboxymethoxyphenyl)-2-(4-sulfophenyl)-2H-tetrazolium (MTS; Sigma-Aldrich) assay was employed and OD490 was measured to evaluate cell viability upon each treatment.

[4] = system: PANC-1 plus EndoMT cell grafts; experiment: Therapeutic efficacy in desmoplastic humanized mouse PDAC transplant model; format: in vivo; conditions: hHSC-transplanted ASID mice; antibody 5 mg/kg x3, gemcitabine 100 mg/kg x2, IV
eHSP90α—TLR4 ligation = conditions: Chua et al., Cells 2020; cited from earlier work

In the case of “peptide with a sequence of the a.a. 227-272 region of HSP90α: synthesized epitopes-containing peptide with the sequence of a.a. 227-272 of HSP90α (DKEVSDDEAEEKEDKEEEKEKEEKESEDKPEIEDVGSDEEEEKKDG; UniProt P07900 227-272, looked up, fragment)”, the “rHSP90α-induced PANC-1 cell invasion” value (PANC-1 cells [1]) is reported as “competitively suppressed” and the “rHSP90α-induced PANC-1 spheroid formation” value (PANC-1 cells [2]) is reported as “competitively suppressed”.
Compound `C=CCNC1=C2C[C@@H](C)C[C@H](OC)[C@H](O)[C@@H](C)/C=C(\C)[C@H](OC(N)=O)[C@@H](OC)/C=C\C=C(/C)C(=O)NC(=CC1=O)C2=O` [Clone 17-AAG, 17-AAG, reference compound] has an IC50 [3] of 64.7 nM.
For `Nc1ccn([C@@H]2O[C@H](CO)[C@@H](O)C2(F)F)c(=O)n1` [gemcitabine], the tumor growth curves [4] was “significantly repressed tumors after the second administration of gemcitabine”.
In the case of `CCCCCCCCOC(=O)c1cc(O)c(O)c(O)c1` [Octyl gallate], the “effect on EndoMT-derived CAFs and eHSP90α-induced macrophage M2-polarization and HSP90α expression” value (eHSP90α—TLR4 ligation) is listed as “inhibitory effect”.
